Assay results from patent US10674725B1, “Herbicidal composition and method for controlling weeds” (SUMITOMO CHEMICAL COMPANY, LIMITED, priority 2019, dated 2020).

Experiments:
corn plant = conditions: corn at 2.5-leaf stage, spot-on 2nd leaf; dicamba-biproamine 4,000,000 ng/plant (acid equivalent), PPO inhibitor 2 ng/plant where added; 6 days after treatment
Description: An aqueous dilution of trifludimoxazin was prepared by mixing one part of a trifludimoxazin formulation (obtained by mixing a predetermined amount of trifludimoxazin with acetone containing 2% of Tween 20) with 4 parts of water, so as to have a concentration of 0.1 ppm of trifludimoxazin.
6 days after the spot-on treatments, an angle of inclination of the main tiller of the corn plant from the vertical line was measured as a quantitative measure of dicamba corn injury of leaning tiller.

soybean plant = conditions: soybean at 2 trifoliate leaf stage, spot-on 2nd trifoliate leaf; dicamba-biproamine 40,000 ng/plant (acid equivalent), PPO inhibitor 20 ng/plant where added; 6 days after treatment; visually estimated

`CN(CCCN)CCCN.COc1c(Cl)ccc(Cl)c1C(=O)O` [Dicamba-biproamine, dicamba-biproamine] was tested, and the “Angle of inclination of the main tiller from the vertical line” value (corn plant) was 90 degrees and the “Leaf area (% of non-treated)” value (soybean plant) was 40%.
